Assays:
[1] = test system: viable cells in culture; assay: Cell viability assay (CellTiter-Glo Luminescent Cell Viability Assay, ATP quantitation, percent of vehicle control)
[2] = test system: human TERT expression (hTERT mRNA); assay: Quantitative real-time RT-PCR of hTERT mRNA expression (Ct, transcripts) in compound-treated cells; format: cell-based; conditions: quantitative real-time RT-PCR
How it was run: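 Read-out is cycle threshold, the cycle at which probe fluorescence released by Taq 5′-nuclease activity crosses a set level; Ct falls as hTERT mRNA rises. cDNA of treated and untreated cells was compared, with starting transcripts quantified against a known-cDNA standard curve.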

SMILES | Average Cell Viability after 24 Hours (% DMSO) [1] [% DMSO] | Average Number of hTERT Transcripts [2]
O=C(N/N=C/c1ccccc1O)c1sc2ccccc2c1Cl [compound 1267] | 38.10 | 3.76
O=C(N/N=C/C=C/c1ccccc1)c1ccccc1O [compound 1268] | 80.84 | 14.70
O=C(N/N=C/c1cc(Br)ccc1O)c1cc2ccccc2cc1O [compound 1269] | 68.44 | 93.93
CC(C)(C)c1ccc(C(=O)N/N=C/c2c(O)ccc3ccccc23)cc1 [compound 1270] | 59.66 | 34.64
Oc1c(Br)cc(Br)cc1/C=N/Nc1ccccn1 [compound 1271] | 57.70 | 38.63
Cn1cc(C(=O)N/N=C/c2c(O)ccc3ccccc23)ccc1=O [compound 1272] | 57.10 | 33.61
Cc1ccc(NCC(=O)N/N=C\c2cc(Br)cc(Br)c2O)cc1 [compound 1273] | 75.55 | 40.65
O=C(N/N=C/c1cc(Br)cc(I)c1O)c1ccccn1 [compound 1274] | 75.52 | 20.59
C/C(=N\NC(=O)Cc1ccc(Cl)cc1)c1ccccn1 [compound 1275] | 71.98 | 127.83
O=C(NNC1=C(C(=O)C(F)(F)F)CCC1)c1ccc(Br)cc1 [compound 1276] | 92.70 | 9.73
Cc1occc1C(=O)N/N=C/c1cc(I)cc(I)c1O [compound 1277] | 68.53 | 24.11
O=C(Cc1ccccc1)NNC1=C(C(=O)C(F)(F)F)CCC1 [compound 1278] | 74.57 | 35.46
COc1cccc(C=NNC(=O)C(C)Nc2cccc3ccccc23)c1O (stereo not drawn) [compound 1279] | 63.90 | 25.71
Cc1cc(C(=O)N/N=C/c2cc(Br)ccc2O)c(C)o1 [compound 1280] | 59.52 | 9.80
CCC(Nc1ccc(Br)cc1)C(=O)N/N=C/c1c(O)ccc2ccccc12 (stereo not drawn) [compound 1281] | 56.81 | 8.35
Cc1cc(C(=O)N/N=C/c2ccccc2O)c(C)o1 [compound 1282] | 68.67 | 27.61
O=C(N/N=C/c1cccc2cccnc12)c1ccc2c(c1)OCO2 [compound 1283] | 68.25 | 18.81
CC(Oc1cccc2ccccc12)C(=O)NN=Cc1cccc2cccnc12 (stereo not drawn) [compound 1284] | 73.23 | 44.70

SMILES | Average Cell Viability after 24 Hours (% DMSO) [1] [% DMSO] | Average Number of hTERT Transcripts [2]
O=c1cnnc(N/N=C/c2ccccn2)[nH]1 [compound 1285] | 65.50 | 97.75
O=C(Cc1ccccc1)N/N=C/c1cccc2cccnc12 [compound 1286] | 75.11 | 29.62
O=C(COc1ccc(F)cc1)N/N=C/c1cccc2cccnc12 [compound 1287] | 67.01 | 12.08
COc1ccccc1OCC(=O)N/N=C/c1cccc2cccnc12 [compound 1288] | 78.28 | 18.81
COc1ccc(OCC(=O)N/N=C/c2cccc3cccnc23)cc1 [compound 1289] | 84.79 | 21.50
O=C(COc1ccc(Cl)cc1)N/N=C/c1cccc2cccnc12 [compound 1290] | 62.81 | 9.13
CC(Oc1cccc2cccnc12)C(=O)N/N=C/c1cccc2cccnc12 (stereo not drawn) [compound 1291] | 77.64 | 47.89
Cn1c(SCC(=O)N/N=C/c2sc3ccccc3c2O)nc2ccccc21 [compound 1292] | 69.51 | 39.11
O=C(N/N=C/c1ccccc1O)/C(=C\c1cccs1)NC(=O)c1ccccc1 [compound 1293] | 89.97 | 37.88
CCCCCC(=O)N/N=C(/C)c1ccccn1 [compound 1294] | 74.63 | 105.99
Cc1cc(NC(=O)C2c3ccccc3Oc3ccccc32)n(-c2nc(C)c(C)c(=O)[nH]2)n1 [compound 1295] | 66.62 | 45.40
CCc1c(C)nc(-n2nc(C)cc2NC(=O)C2c3ccccc3Oc3ccccc32)[nH]c1=O [compound 1296] | 73.20 | 60.31
CCOC(=O)c1nn(-c2ccccc2)c(=O)c2c(NC(=O)c3ccc4c(c3)OCO4)scc12 [compound 1298] | 101.83 | 8.68
CCOC(=O)c1nn(-c2ccccc2)c(=O)c2c(NC(=O)c3c(F)cccc3Cl)scc12 [compound 1299] | 69.64 | 2.95
CCOC(=O)c1nn(-c2ccc(Cl)cc2)c(=O)c2c(NC(=O)c3ccc(F)cc3)scc12 [compound 1300] | 62.52 | 6.98
O=C(Nc1ccc(Cl)c(Cl)c1)Nc1nnc(CSc2ccccc2)s1 [compound 1301] | 63.90 | 65.14
COC(=O)CSc1nnc(NC(=O)c2ccc(Cl)cc2)s1 [compound 1302] | 70.75 | 41.43
CCC(=O)Nc1nnc(SCc2cc(=O)c3cccc(Cl)c3[nH]2)s1 [compound 1303] | 80.90 | 4.51

From patent US12404304B1, “Telomerase reverse transcriptase (TERT) expression enhancing compounds and methods for using the same” (Sierra Sciences, LLC, priority 2007, dated 2025)
